According to ChEMBL document CHEMBL3576857, “Biosynthetic products from a nearshore-derived gram-negative bacterium enable reassessment of the kailuin depsipeptides” (J Nat Prod, 2015):
Calls of active or inactive are those of the source. No cut-off for these calls is given here.

Key:
Assay type in all cases: functional, cell-based
[1] = tested on: HCT-116; assay: Cytotoxicity against human HCT116 cells
[2] = tested on: MCF7; assay: Cytotoxicity against human MCF7 cells
[3] = tested on: HeLa; assay: Cytotoxicity against human HeLa cells assessed as effect on phenotypic features by automated microscopy and image analysis

Row | SMILES | IC50 [1] | IC50 [2] | Activity [3]
1 | CC[C@H](C)[C@@H]1NC(=O)[C@@H](CC(C)C)NC(=O)[C@H]([C@@H](C)O)NC(=O)[C@H](CO)NC(=O)[C@@H](CC(C)C)NC(=O)C[C@@H](CCCCCCCCC(C)C)OC1=O | 17 µM |  | 
2 | CC[C@H](C)[C@@H]1NC(=O)[C@@H](CC(C)C)NC(=O)[C@H]([C@@H](C)O)NC(=O)[C@H](CO)NC(=O)[C@@H](CC(C)C)NC(=O)C[C@@H](CCCCCCC(C)C)OC1=O | 50 µM | 6 µM | 
3 | CCCCCC/C=C\CCC[C@@H]1CC(=O)N[C@H](CC(C)C)C(=O)N[C@@H](CO)C(=O)N[C@@H]([C@@H](C)O)C(=O)N[C@H](CC(C)C)C(=O)N[C@@H]([C@@H](C)CC)C(=O)O1 | 28 µM | 4 µM | Active
4 | CCCCCCCCCCC[C@@H]1CC(=O)N[C@H](CC(C)C)C(=O)N[C@@H](CO)C(=O)N[C@@H]([C@@H](C)O)C(=O)N[C@H](CC(C)C)C(=O)N[C@@H]([C@@H](C)CC)C(=O)O1 | 18 µM |  | Active
5 | CC[C@H](C)[C@@H]1NC(=O)[C@@H](CC(C)C)NC(=O)[C@H]([C@@H](C)O)NC(=O)[C@H](CO)NC(=O)[C@@H](CC(C)C)NC(=O)CCNC1=O | > 1000 µM |  | 
6 | CC[C@H](C)[C@@H]1NC(=O)[C@@H](CC(C)C)NC(=O)[C@H]([C@@H](C)O)NC(=O)[C@H](CO)NC(=O)[C@@H](CC(C)C)NC(=O)CCC(=O)C1=O | > 1000 µM |  | 
7 | CCCCCCCCC[C@@H]1CC(=O)N[C@H](CC(C)C)C(=O)N[C@@H](CO)C(=O)N[C@@H]([C@@H](C)O)C(=O)N[C@H](CC(C)C)C(=O)N[C@@H]([C@@H](C)CC)C(=O)O1 | 22 µM | 3 µM | 
8 | CCCCCCC[C@@H]1CC(=O)N[C@H](CC(C)C)C(=O)N[C@@H](CO)C(=O)N[C@@H]([C@@H](C)O)C(=O)N[C@H](CC(C)C)C(=O)N[C@@H]([C@@H](C)CC)C(=O)O1 |  | 4 µM | 
9 | CCCCCCCCCC[C@@H]1CC(=O)N[C@H](CC(C)C)C(=O)N[C@@H](CO)C(=O)N[C@@H]([C@@H](C)O)C(=O)N[C@H](CC(C)C)C(=O)N[C@@H]([C@@H](C)CC)C(=O)O1 | 32 µM |  | 
